Experiments:
[1] = system: barium-stimulated intestinal transit of the charcoal meal; test: Irritable bowel syndrome: intestinal transit of a charcoal meal in conscious mice, barium chloride stimulated; format: in vivo, mouse; conditions: barium chloride 300 mg/kg oral; effect of Ba^+2 on transit
Description: The test used is a modification of the method of Macht and Barba-Gose, J. Amer. Pharm. […] In the present model, intestinal transit in conscious mice (15-20 g) was accelerated with an oral dose of barium chloride (300 mg/kg) administered at the same time as the charcoal meal. The animals were sacrificed 10 minutes later and the distance travelled by the charcoal measured. 1-diphenyl-methyl-4-[(2-(4-methylphenyl)-5-methylimidazol-4-yl)methyl]-piperazine trihydrochloride was given as a 15 minute oral pre-treatment and its effect on non-stimulated or barium-stimulated intestinal transit of the charcoal meal was calculated.

[2] = in vivo; cited from earlier work

Structure (SMILES) | % Change Ba^+2 [1] | risk of a second ischemic event [2]
[Ba+2].[Cl-].[Cl-] [barium chloride, reference compound] | +93% | 
Clc1ccccc1CN1CCc2sccc2C1 [ticlopidine] |  | demonstrated to reduce the risk of a second ischemic event

— patent US5276034A, “Substituted imidazolyl-alkyl-piperazine and -diazepine derivatives” (Syntex Pharmaceutical Ltd., priority 1991, dated 1994)
